In PubChem BioAssay (NCI):
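Method: 48-hour compound exposure of cells in 96-well plates, five concentrations, linear interpolation of endpoints. At the TGI there is no net growth.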

Test system: LXFL 529 NSCLC
Experiment: NCI tumour cell line growth inhibition, 48 h

`COc1ccccc1NC(=O)C1=C(C)NC(C)=C(C(=O)Nc2ccccc2OC)C1c1ccco1` and `COc1ccccc1C(=O)N(Cc1ccccc1)c1ccc(Cl)c(C(=O)OC(C)C)c1` cannot be ordered by TGI: over 100 µM for the first, over 100 µM for the second.

`C1=CC2CCC1CN2CCC1CNc2ccccc21` (centres undefined) and `CN1CCc2ccccc2C(C(=O)c2ccc3c(c2)OCO3)C1=O` (centres undefined) cannot be ordered by TGI: over 100 µM for the first, over 100 µM for the second.

Going from `Cc1ccc(OC(=O)N2C/C(=C\c3ccccc3)C(=O)/C(=C/c3ccccc3)C2)cc1` to `Cc1ccc2ccc(-c3ccccc3)c3c2c1C(=O)c1ccccc1C3=O`, the TGI rises from 30.6 µM to over 100 µM.

Compared with `O=C1C(=O)C2(CC1S(=O)(=O)c1ccccc1)c1ccccc1-c1ccccc12` (centres undefined), `O=c1oc2c3ccc4ccccc4c3n(CCN3CCCCC3)c2c2ccccc12` is higher in TGI: 31 µM for the first, over 100 µM for the second.

`Cc1ccc(S(=O)C(C)C(Cl)c2ccccc2)cc1` (centres undefined) and `COc1ccc(Br)c(C(=O)N2CCc3ccccc32)c1N` cannot be ordered by TGI: over 100 µM for the first, over 100 µM for the second.

First: Cc1cc(Cl)ccc1NC(=O)C1C(=O)N(c2ccc(Cl)cc2C)C(=O)/C1=N\NC(N)=S (centres undefined)
Second: OCC(O)C(O)C(O)c1nn(-c2ccc(F)cc2)c2nc3cc(Cl)c(Cl)cc3nc12 (centres undefined)
The TGI of the first is lower: 98.5 µM for the first, over 100 µM for the second.

Test system: HOP-18 NSCLC
Experiment: NCI tumour cell line growth inhibition, 48 h

`CC1(C)OC(=O)C(=C2CCC(C(=O)Nc3cccc(C(F)(F)F)c3)N2)C(=O)O1` (centres undefined) and `CN1CCc2ccccc2C(C(=O)c2ccc3c(c2)OCO3)C1=O` (centres undefined) cannot be ordered by TGI: over 100 µM for the first, over 100 µM for the second.

`CN(C)CCN1CCc2c([nH]c3ccccc23)C1c1cccnc1` (centres undefined) and `C1=CC2CCC1CN2CCC1CNc2ccccc21` (centres undefined) cannot be ordered by TGI: over 100 µM for the first, over 100 µM for the second.

`C[C@H]1CC[P+](C)(c2ccccc2)C1` (some centres undefined) and `Cc1ccc(S(=O)C(C)C(Cl)c2ccccc2)cc1` (centres undefined) cannot be ordered by TGI: over 100 µM for the first, over 100 µM for the second.

`COc1cc2c(c(OC)c1OC)C(=O)NCCC2` and `COc1ccc(C2Cc3cc(OC)c(OC)c(OC)c3C2)cc1` (centres undefined) cannot be ordered by TGI: over 100 µM for the first, over 100 µM for the second.

Compared with `Cc1nc2ccccc2c(=O)n1/N=C(\N=Nc1cc(Cl)ccc1Cl)c1ccccc1`, `Cc1ccc2ccc(-c3ccccc3)c3c2c1C(=O)c1ccccc1C3=O` is higher in TGI: 44.9 µM for the first, over 100 µM for the second.

First: O=c1[nH]cnc2n[nH]nc12
Second: OCC(O)C(O)C(O)c1nn(-c2ccc(F)cc2)c2nc3cc(Cl)c(Cl)cc3nc12 (centres undefined)
The TGI of the first is higher: over 100 µM for the first, 52.7 µM for the second.

Compared with `O=C(/C=C/c1ccccc1O)c1ccccc1Cl`, `COc1ccccc1C(=O)N(Cc1ccccc1)c1ccc(Cl)c(C(=O)OC(C)C)c1` is lower in TGI: over 100 µM for the first, 56.3 µM for the second.

`CCCCC1(C(NC(=O)c2ccccc2Cl)c2ccncc2)C(=O)N(c2ccccc2)N(c2ccccc2)C1=O` (centres undefined) and `Cc1ccc(OC(=O)N2C/C(=C\c3ccccc3)C(=O)/C(=C/c3ccccc3)C2)cc1` cannot be ordered by TGI: over 100 µM for the first, over 91.2 µM for the second.

`COc1ccc(/C=N/NS(=O)(=O)c2ccccc2)cc1` and `O=C1C(=O)C2(CC1S(=O)(=O)c1ccccc1)c1ccccc1-c1ccccc12` (centres undefined) cannot be ordered by TGI: over 100 µM for the first, over 10 µM for the second.

`COc1ccccc1NC(=O)C1=C(C)NC(C)=C(C(=O)Nc2ccccc2OC)C1c1ccco1` and `Cc1cc(Cl)ccc1NC(=O)C1C(=O)N(c2ccc(Cl)cc2C)C(=O)/C1=N\NC(N)=S` (centres undefined) are within 1.5-fold of each other in TGI: 73.9 µM for the first, 60.8 µM for the second.

`O=c1oc2c3ccc4ccccc4c3n(CCN3CCCCC3)c2c2ccccc12` and `COc1ccc(Br)c(C(=O)N2CCc3ccccc32)c1N` cannot be ordered by TGI: over 100 µM for the first, over 100 µM for the second.

With `NCCCN=c1ccc2c3c1c(O)c1c(O)ccc(=O)c1c3[nH]n2CCNCCO` the TGI was 17.8 µM.

Test system: SN12K1 renal
Experiment: NCI tumour cell line growth inhibition, 48 h

Going from `COc1cc2c(c(OC)c1OC)C(=O)NCCC2` to `NCCCN=c1ccc2c3c1c(O)c1c(O)ccc(=O)c1c3[nH]n2CCNCCO`, the TGI falls from over 100 µM to 16.3 µM.

Test system: P388/ADR leukemia
Experiment: NCI tumour cell line growth inhibition, 48 h

First: COc1cc2c(c(OC)c1OC)C(=O)NCCC2
Second: NCCCN=c1ccc2c3c1c(O)c1c(O)ccc(=O)c1c3[nH]n2CCNCCO
The TGI of the first is higher: over 100 µM for the first, 100 µM for the second.

Test system: P388 leukemia
Experiment: NCI tumour cell line growth inhibition, 48 h

Going from `COc1cc2c(c(OC)c1OC)C(=O)NCCC2` to `NCCCN=c1ccc2c3c1c(O)c1c(O)ccc(=O)c1c3[nH]n2CCNCCO`, the TGI falls from over 100 µM to 6.13 µM.

Test system: RXF-631 renal
Experiment: NCI tumour cell line growth inhibition, 48 h

`CCN(c1ccccc1)[C@H]1C(=O)N(c2ccc([N+](=O)[O-])cc2)[C@H]1c1ccc(OC)cc1` and `Cc1ccc(OC(=O)N2C/C(=C\c3ccccc3)C(=O)/C(=C/c3ccccc3)C2)cc1` cannot be ordered by TGI: over 100 µM for the first, over 100 µM for the second.

`COc1ccc(/C=C\c2cc(OC)c(OC)c(OC)c2)cc1` and `COc1cc(OC)c2c(=O)c3cccc([N+](=O)[O-])c3n(C)c2c1` cannot be ordered by TGI: over 100 µM for the first, over 100 µM for the second.

Compared with `Cc1cc(C)nc(NS(=O)(=O)c2ccc(Nc3c4ccccc4nc4c(C(=O)NCCN(C)C)cccc34)cc2)n1`, `COc1ccccc1C(=O)N(Cc1ccccc1)c1ccc(Cl)c(C(=O)OC(C)C)c1` is higher in TGI: 18 µM for the first, over 100 µM for the second.

`O=C1CCC(=O)N1Sc1ccccc1` and `CN1CCc2ccccc2C(C(=O)c2ccc3c(c2)OCO3)C1=O` (centres undefined) cannot be ordered by TGI: over 100 µM for the first, over 100 µM for the second.

`O=C(/C=C/c1ccccc1O)c1ccccc1Cl` and `COc1ccccc1NC(=O)C1=C(C)NC(C)=C(C(=O)Nc2ccccc2OC)C1c1ccco1` cannot be ordered by TGI: over 100 µM for the first, over 92.6 µM for the second.

`O=c1oc2c3ccc4ccccc4c3n(CCN3CCCCC3)c2c2ccccc12` and `Cc1cc(Cl)ccc1NC(=O)C1C(=O)N(c2ccc(Cl)cc2C)C(=O)/C1=N\NC(N)=S` (centres undefined) cannot be ordered by TGI: over 100 µM for the first, over 100 µM for the second.

Test system: SNB-78 CNS
Experiment: NCI tumour cell line growth inhibition, 48 h

`CC1(C)OC(=O)C(=C2CCC(C(=O)Nc3cccc(C(F)(F)F)c3)N2)C(=O)O1` (centres undefined) and `Cc1cc(Cl)ccc1NC(=O)C1C(=O)N(c2ccc(Cl)cc2C)C(=O)/C1=N\NC(N)=S` (centres undefined) cannot be ordered by TGI: over 100 µM for the first, over 100 µM for the second.

`CN(C)CCN1CCc2c([nH]c3ccccc23)C1c1cccnc1` (centres undefined) and `C1=CC2CCC1CN2CCC1CNc2ccccc21` (centres undefined) cannot be ordered by TGI: over 100 µM for the first, over 100 µM for the second.

`CCN(c1ccccc1)[C@H]1C(=O)N(c2ccc([N+](=O)[O-])cc2)[C@H]1c1ccc(OC)cc1` and `COc1ccc(/C=N/NS(=O)(=O)c2ccccc2)cc1` cannot be ordered by TGI: over 100 µM for the first, over 100 µM for the second.

`C[C@H]1CC[P+](C)(c2ccccc2)C1` (some centres undefined) and `O=C1CCC(=O)N1Sc1ccccc1` cannot be ordered by TGI: over 100 µM for the first, over 100 µM for the second.

`COc1cc(OC)c2c(=O)c3cccc([N+](=O)[O-])c3n(C)c2c1` and `COc1ccc(C2Cc3cc(OC)c(OC)c(OC)c3C2)cc1` (centres undefined) cannot be ordered by TGI: over 100 µM for the first, over 100 µM for the second.

Going from `COc1cccc(/C=N\NC(=O)C(C)SC(C)C(=O)N/N=C/c2cccc(OC)c2)c1` (centres undefined) to `COc1ccccc1C(=O)N(Cc1ccccc1)c1ccc(Cl)c(C(=O)OC(C)C)c1`, the TGI falls from over 100 µM to 78 µM.

Compared with `Cc1cc(C)nc(NS(=O)(=O)c2ccc(Nc3c4ccccc4nc4c(C(=O)NCCN(C)C)cccc34)cc2)n1`, `Cc1ccc2ccc(-c3ccccc3)c3c2c1C(=O)c1ccccc1C3=O` is higher in TGI: 45.2 µM for the first, over 100 µM for the second.

`COc1cc2c(c(OC)c1OC)C(=O)NCCC2` and `COc1ccc(Br)c(C(=O)N2CCc3ccccc32)c1N` cannot be ordered by TGI: over 100 µM for the first, over 100 µM for the second.

Going from `O=c1[nH]cnc2n[nH]nc12` to `OCC(O)C(O)C(O)c1nn(-c2ccc(F)cc2)c2nc3cc(Cl)c(Cl)cc3nc12` (centres undefined), the TGI falls from 56.7 µM to 27.4 µM (2.1-fold).

`O=C(/C=C/c1ccccc1O)c1ccccc1Cl` and `Cc1ccc(S(=O)C(C)C(Cl)c2ccccc2)cc1` (centres undefined) cannot be ordered by TGI: over 100 µM for the first, over 100 µM for the second.

First: CCCCC1(C(NC(=O)c2ccccc2Cl)c2ccncc2)C(=O)N(c2ccccc2)N(c2ccccc2)C1=O (centres undefined)
Second: Cc1ccc(OC(=O)N2C/C(=C\c3ccccc3)C(=O)/C(=C/c3ccccc3)C2)cc1
The TGI of the first is higher: over 100 µM for the first, 82.3 µM for the second.

First: COc1ccccc1NC(=O)C1=C(C)NC(C)=C(C(=O)Nc2ccccc2OC)C1c1ccco1
Second: O=C1C(=O)C2(CC1S(=O)(=O)c1ccccc1)c1ccccc1-c1ccccc12 (centres undefined)
The TGI of the first is higher: over 100 µM for the first, 45.6 µM for the second.

First: O=c1oc2c3ccc4ccccc4c3n(CCN3CCCCC3)c2c2ccccc12
Second: NCCCN=c1ccc2c3c1c(O)c1c(O)ccc(=O)c1c3[nH]n2CCNCCO
The TGI of the first is higher: over 31.6 µM for the first, 4.15 µM for the second.
